A value given as a limit tells only on which side of the number the result lay.

Data set [1] concerns the target Adenosine. The data set can be described thus: Radioligand binding, Adenosine. From the text: (§1) EAAs are known to play important roles in excitatory neurotransmission in partial seizures as discussed earlier. […] Thus, several aminoalkylpyridines of this invention are effective antagonists of NMDA-receptor mediated EAA neurotransmission and function as noncompetitive NMDA antagonists and thus can be used to advantage in epilepsy, stroke and Alzheimer's disease.
(§2) EAAs are known to play important roles in excitatory transmission in partial seizures as discussed earlier. In general, antieptileptic drugs effective against MES seizures alter ionic transport across excitable membranes [Porter, R. J., and Pitlick, W. H., In "Basic and Clinical Pharmacology", 4th Edn., B. G. Katzung, Ed., Appleton and Lange, CA 1989, pp. 287-303]. Based on this rationale, the aminoalkylpyridines may be expected to attenuate EAA neurotransmission. Indeed, evaluation of potential displacement activity of #2 at all inhibitory and excitatory amino acid receptor types and subtypes using appropriate radioligands, indicate that this aminoalkylpyridine inhibits at 10 μM concentration, 49% of the binding of [^3 H]DTG, a ligand highly specific for the σ (sigma) receptor population of the PCP receptors on the NMDA receptor-ionophore complex (Table 6).
(§3) Values are expressed as the percent inhibition of specific binding and […]

The target in data set [2] is Benzodiazepine. Put plainly: Radioligand binding, Benzodiazepine.
Text: as §1, §2, §3

Data set [3] has as its target Glycine (Homo sapiens, UniProt P23415). Put plainly: Radioligand binding, Glycine (inhibitory). From the text:
(§4) EAAs are known to play important roles in excitatory neurotransmission in partial seizures as discussed earlier.
(§5) EAAs are known to play important roles in excitatory transmission in partial seizures as discussed earlier.

For data set [4], the system named is MES and scMet seizures. Put plainly: Anticonvulsant screening, ASP classification (MES and scMet tests) in mice, i.p. The class given is in vivo, mouse. Conditions: ip; i.p. mouse; read-out: ASP Group Classification.
For data set [5], the system named is subcutaneous pentylenetetrazol seizures. Put plainly: Subcutaneous pentylenetetrazol (Metrazole) seizure threshold test (scMet), mice, i.p. The format is in vivo. As to conditions: Mus musculus, ip. The procedure:
(§6) The Subcutaneous Pentylenetetrazol (Metrazole) Seizure Threshold Test (scMet): A 0.5% solution of 85 mg/kg of pentylenetetrazol is administered subcutaneously in the posterior midline. The animal is observed for 30 minutes.

Data set [6] in a line: Rotorod ataxia test (neurotoxicity), mice, i.p. Conditions: mouse, in vivo, ip. On the procedure:
Neurotoxicity is evaluated in mice by the rotorod ataxia test. The animal is placed on a wooden rod of 11/8" diameter rotating at 6 rpm. Normal mice can remain on a rod rotating at this speed indefinitely.
For orientation: Falling from the rotarod earlier than controls is read as motor impairment.

The test system of data set [7] is subcutaneous pentylenetetrazol seizures. The data set can be described thus: Subcutaneous pentylenetetrazol seizure threshold test (scMet), rat, p.o. The format is in vivo, rat (Sprague-Dawley). As to conditions: po. On the procedure: as §6
Data set [8] is described as follows: in vivo. Conditions: rat, po. Also noted: species or system rat (Sprague-Dawley). The source says: Inability to do so rapidly indicates a neurologic deficit.
The target of data set [9] is Glycine (Homo sapiens, UniProt Q05586). The data set can be described thus: Radioligand binding, Glycine (excitatory), [3H]glycine.
Text: as §4, §5

For data set [10], the system named is Kainate. The data set can be described thus: Radioligand binding, Kainate, [3H]KA.
Text: as §1, §2, §3

Data set [11] has as its system MK-801. Put plainly: Radioligand binding, MK-801, [3H]MK-801.
Text: as §1, §2, §3

The test system of data set [12] is NMDA. The data set can be described thus: Radioligand binding, NMDA, [3H]CGS19755.
Text: as §1, §2, §3

Data set [13] has as its system PCF. The data set can be described thus: Radioligand binding, PCP, [3H]TCP.
Text: as §1, §2, §3

Data set [14] concerns Quisqualate. The data set can be described thus: Radioligand binding, Quisqualate, [3H]AMPA.
Text: as §1, §2, §3

The test system of data set [15] is Sigma. The data set can be described thus: Radioligand binding, Sigma, [3H]DTG. As to conditions: for inhibition of the binding of [3H]DTG (in words): σ receptor population.
Text: as §4, §5

In data set [16] the test system is GABAA. The data set can be described thus: Radioligand binding, GABAA.
Text: as §4, §5

Data set [17] deals with GABAe (Homo sapiens, UniProt Q9UBS5). Put plainly: Radioligand binding, GABAe.
Text: as §4, §5

The subject of data set [18] is endogenous L-glutamate release. The data set can be described thus: Ca2+ dependent, K+ evoked release of endogenous L-glutamate in cerebrocortical slices. The format is cell-based, guinea pig. Conditions: Cavia porcellus; for activity at 50 µM / activity at 100 µM: means ± SEM, n = 4.
Data set [19] concerns maximal electroshock seizures. The data set can be described thus: Maximal electroshock seizure (MES) test in the rat, p.o. Conditions: for ED50 / responders at 50 mg/kg: Rattus norvegicus, po; for ED50: read-out: ED50 MES; for responders at 50 mg/kg: read-out: Percent protection at 50 mg/kg dose, p.o., in the MES Test in the rat; for P.I. MES (TD50/ED50): rat, p.o. (The maximal electroshock test induces tonic seizures with an electrical stimulus.)
Text: (§7) The Maximal Electroshock Seizure Test (MES): Maximal electroshock seizures are elicited with a 60 Hz alternating current of 50 mA intensity in mice and about 150 mA in rats (5-7 times that necessary to elicit minimal electroshock seizures), delivered for 0.2 sec via corneal electrodes. A drop of 0.9% saline is instilled in the eye prior to application of the electrodes in order to prevent the death of the animal. Abolition of the hind limb tonic extension component of the seizure is defined as protection and results are expressed as number of animals protected/number of animals tested.
This species will be subject of the complete anticonvulsant quantification test evaluation as described above, but after oral (gavage) administration of the candidate compound.
Neurological deficit in rats is examined by the positional sense test and gait and stance test. […] Inability to do so rapidly indicates a neurologic deficit. In the gait and stance test, a neurologic deficit is indicated by a circular or zigzag gait, ataxia, abnormal spread of the legs, abnormal body posture, tremor, hyperactivity, lack of exploratory behavior, somnolence, stupor, or catalepsy.

Data set [20] deals with maximal electroshock seizures. The data set can be described thus: Maximal electroshock seizure (MES) test, anticonvulsant quantification in mice, i.p. As to conditions: for ED50: Mus musculus, ip, read-out: ED50 MES; for P.I. MES (TD50/ED50): mice.
Experimental: Screening Methodology to Determine Anticonvulsant Activity: In mice, i.p.: All compounds are solubilized in 0.5% methylcellulose. […] The compounds are administered intraperitoneally in a volume of 0.01 ml/gm to male Carworth Farms #1 mice weighing about 20 gm. All compounds are tested at least at three dose levels (30, 100 an 300 mg/kg) at 30 minutes and 4 hours after their administration.
as §7
Anticonvulsant Quantification in Mice, i.p.: The ED50 values are determined in the MES, scMet and rotorod ataxia test.
Setting [21] is: 10^-7 M, read-out: Percent Inhibition of specific binding (Average; N = 2).

Chain of Glycine (Homo sapiens, UniProt P23415) (P23415 29-457): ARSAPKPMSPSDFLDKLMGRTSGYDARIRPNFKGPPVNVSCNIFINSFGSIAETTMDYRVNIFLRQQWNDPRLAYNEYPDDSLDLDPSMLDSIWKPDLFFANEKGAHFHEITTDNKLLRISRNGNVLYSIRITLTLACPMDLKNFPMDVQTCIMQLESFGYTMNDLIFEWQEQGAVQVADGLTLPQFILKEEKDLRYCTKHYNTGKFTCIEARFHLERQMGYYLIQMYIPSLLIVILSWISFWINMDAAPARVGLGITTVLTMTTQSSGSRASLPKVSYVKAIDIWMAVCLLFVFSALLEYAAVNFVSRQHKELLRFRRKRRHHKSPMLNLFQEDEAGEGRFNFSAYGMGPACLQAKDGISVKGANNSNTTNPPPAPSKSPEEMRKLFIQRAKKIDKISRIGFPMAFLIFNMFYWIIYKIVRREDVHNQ
Chain of Glycine (Homo sapiens, UniProt P23415) (P48167 23-497 partner): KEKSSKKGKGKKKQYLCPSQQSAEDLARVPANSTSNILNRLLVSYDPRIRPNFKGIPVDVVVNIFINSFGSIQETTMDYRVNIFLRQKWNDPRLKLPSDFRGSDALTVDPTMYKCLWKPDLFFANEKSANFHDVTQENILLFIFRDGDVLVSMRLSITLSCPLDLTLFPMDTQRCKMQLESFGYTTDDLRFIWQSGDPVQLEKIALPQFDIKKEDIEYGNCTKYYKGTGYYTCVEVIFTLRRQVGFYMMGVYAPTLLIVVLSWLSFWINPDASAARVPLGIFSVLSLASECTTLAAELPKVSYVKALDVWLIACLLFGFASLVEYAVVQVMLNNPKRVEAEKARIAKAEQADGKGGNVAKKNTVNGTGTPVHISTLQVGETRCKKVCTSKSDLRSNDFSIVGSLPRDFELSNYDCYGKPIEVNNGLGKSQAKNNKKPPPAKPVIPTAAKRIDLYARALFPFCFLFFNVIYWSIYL
Chain of GABAe (Q9UBS5 15-961 limits assumed): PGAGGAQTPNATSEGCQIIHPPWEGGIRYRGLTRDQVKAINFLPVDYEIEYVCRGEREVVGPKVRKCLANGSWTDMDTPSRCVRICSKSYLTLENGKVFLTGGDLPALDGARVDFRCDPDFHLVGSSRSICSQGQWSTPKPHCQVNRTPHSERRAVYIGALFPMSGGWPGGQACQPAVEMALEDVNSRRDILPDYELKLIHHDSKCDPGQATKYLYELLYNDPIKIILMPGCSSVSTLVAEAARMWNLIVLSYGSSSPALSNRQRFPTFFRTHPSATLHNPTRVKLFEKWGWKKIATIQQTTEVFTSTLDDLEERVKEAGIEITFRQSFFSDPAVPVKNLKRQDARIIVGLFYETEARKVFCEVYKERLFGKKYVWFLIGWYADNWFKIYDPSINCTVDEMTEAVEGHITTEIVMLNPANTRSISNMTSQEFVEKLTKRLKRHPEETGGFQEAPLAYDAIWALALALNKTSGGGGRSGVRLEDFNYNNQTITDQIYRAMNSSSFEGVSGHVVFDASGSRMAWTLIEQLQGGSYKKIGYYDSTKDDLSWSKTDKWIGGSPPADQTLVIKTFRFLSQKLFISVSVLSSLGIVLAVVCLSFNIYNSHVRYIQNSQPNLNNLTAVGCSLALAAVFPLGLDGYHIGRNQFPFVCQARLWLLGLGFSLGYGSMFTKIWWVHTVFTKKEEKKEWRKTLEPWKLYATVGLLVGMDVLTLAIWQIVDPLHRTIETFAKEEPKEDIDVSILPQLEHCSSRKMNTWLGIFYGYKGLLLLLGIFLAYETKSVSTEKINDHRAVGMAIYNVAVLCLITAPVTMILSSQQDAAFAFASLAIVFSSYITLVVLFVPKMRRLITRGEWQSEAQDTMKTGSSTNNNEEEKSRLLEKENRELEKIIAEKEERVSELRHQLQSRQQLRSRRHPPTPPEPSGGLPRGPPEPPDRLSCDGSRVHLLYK
Chain of GABAe (O75899 42-941 partner): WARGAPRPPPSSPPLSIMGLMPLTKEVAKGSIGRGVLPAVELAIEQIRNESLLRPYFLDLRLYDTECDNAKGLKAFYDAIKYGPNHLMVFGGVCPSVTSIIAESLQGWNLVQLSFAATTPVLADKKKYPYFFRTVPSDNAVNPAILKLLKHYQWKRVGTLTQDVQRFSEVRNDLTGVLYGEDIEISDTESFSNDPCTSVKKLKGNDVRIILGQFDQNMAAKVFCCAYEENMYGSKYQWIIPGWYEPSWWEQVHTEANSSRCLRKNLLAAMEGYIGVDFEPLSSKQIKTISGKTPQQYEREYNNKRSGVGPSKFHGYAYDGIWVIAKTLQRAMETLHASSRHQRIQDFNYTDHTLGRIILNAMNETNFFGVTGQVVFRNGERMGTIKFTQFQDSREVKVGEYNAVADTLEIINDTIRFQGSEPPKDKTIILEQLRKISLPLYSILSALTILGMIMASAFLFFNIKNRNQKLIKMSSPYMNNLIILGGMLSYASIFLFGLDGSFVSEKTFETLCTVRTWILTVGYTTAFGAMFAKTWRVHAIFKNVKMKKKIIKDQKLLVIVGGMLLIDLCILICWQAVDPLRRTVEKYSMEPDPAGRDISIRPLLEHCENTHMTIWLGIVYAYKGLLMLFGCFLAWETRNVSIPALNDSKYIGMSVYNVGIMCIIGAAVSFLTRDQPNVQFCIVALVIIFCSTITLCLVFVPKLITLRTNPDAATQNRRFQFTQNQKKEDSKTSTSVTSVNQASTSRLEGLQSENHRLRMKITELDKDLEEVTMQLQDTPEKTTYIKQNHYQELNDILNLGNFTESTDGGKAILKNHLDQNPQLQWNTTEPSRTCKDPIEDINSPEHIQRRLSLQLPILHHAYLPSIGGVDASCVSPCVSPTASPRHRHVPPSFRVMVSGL

In data set [1] (reference compound, Adenosine), `CNC(=O)[C@H]1O[C@@H](n2cnc3c(N)ncnc32)[C@H](O)[C@@H]1O` [MECA, reference compound] had a Ki of 0.0395 µM.

Consider `O=C1CN=C(c2ccccc2Cl)c2cc([N+](=O)[O-])ccc2N1` [Clonazepam, reference compound], for which the Ki in [2] (reference compound, Benzodiazepine) is 0.0034 µM. In other words, the single-digit nanomolar range.

For the compound `O=C1C[C@@H]2OCC=C3CN4CC[C@]56c7ccccc7N1[C@H]5[C@H]2[C@H]3C[C@H]46` [Strychnine Nitrate, reference compound], in data set [3], the inhibition constant (Ki) was 0.0335 µM. In other words, the double-digit nanomolar range.

Consider `CC(Nc1ccc(Cl)cc1)c1ccncc1` (centres unmarked) [Compound 2, 1-(4-Chloroanilino)-1-(4-pyridyl)-ethan], for which, in data set [4], the minimal effective dose was under 100 mg/kg. Also, the ED50 in [5] is under 150 mg/kg; in data set [7], over 250 mg/kg; in data set [19], 22.9 mg/kg; in data set [20], 53.7 mg/kg. For the same compound, the values for the TD50 in data set [6] and in data set [8] were 160 mg/kg and over 470 mg/kg, respectively. Moreover, the “Percent Inhibition of specific binding (Average; N = 2)” value (from here on “Percent Inhibition of specific binding”) is -15.9% in data set [1] (1.0^-5 M); -15.2% in data set [1] (10^-7 M); -4.0% in data set [9] (1.0^-5 M); -7.3% in [10] (1.0^-5 M); -3.7% in data set [10] (10^-7 M); 17.0% in data set [11] (1.0^-5 M). Also, the “Percent Inhibition of specific binding” value was 13.5% in data set [11] (10^-7 M); -6.6% in [12] (1.0^-5 M); 3.5% in data set [12] (10^-7 M); -1.8% in [13] (1.0^-5 M); -3.8% in [13] (10^-7 M); 4.3% in data set [14] (1.0^-5 M). In addition, the “Percent Inhibition of specific binding” value in [14] (10^-7 M) is on record as 4.2%; in data set [15] (1.0^-5 M), 49.1%; in data set [15] (10^-7 M), 12.9%; in data set [2] (1.0^-5 M), -7.8%; in data set [2] (10^-7 M), -4.7%; in data set [16] (1.0^-5 M), 1.2%. For the same compound, the “Percent Inhibition of specific binding” value was 6.5% in data set [16] (10^-7 M), -4.9% in [17] (1.0^-5 M) and -1.4% in data set [3] (1.0^-5 M). The values for the inhibition at 0.1 µM in [9] (setting [21]), in [17] (setting [21]) and in [3] (setting [21]) were 8.7%, 3.6% and -1.8%, respectively. Further, the “activity at the [3H]MK-801-binding receptor sites (in words)” value in data set [11] is given as “no activity”. Moreover, the “activity at the [3H]TCP-binding receptor sites / PCP receptors (in words)” value in data set [13] is “no activity”. Also, the “inhibition of the binding of [3H]DTG” value in data set [15] (10 μM concentration) came out at 49%. In addition, in [15], the “inhibition of the binding of [3H]DTG (in words)” value (shortened to “inhibition … (in words)”) is given as “inhibit selectively”. The activity at 50 µM stood at 121 ± 8% in data set [18] (50 μM (K+), 30 mM K+, P < 0.001 vs K+ alone) and 101 ± 6% in data set [18] (50 μM (basal)). The activity at 100 µM was 114 ± 4% in data set [18] (100 μM (K+), 30 mM K+, P < 0.001 vs K+ alone) and 99 ± 9% in data set [18] (100 μM (basal)). In addition, the inhibition at 50 µM in data set [18] (50 μM) came out at 74%. In addition, the inhibition at 100 µM in data set [18] (100 μM) stood at 80%. The responders at 50 mg/kg in data set [19] was in the range of 75 to 100%. For the same compound, the figures for the “P.I. MES (TD50/ED50)” value in [19] and in [20] were over 20.53 and 2.98, respectively.

The compound `C[C@@H](N)C(=O)O` [D-Alanine, reference compound] displayed a Ki in [9] (reference compound, [3H]glycine) of 4.9 µM.

`O=C(O)C1CN(CCCP(=O)(O)O)CCN1` (centres unmarked) [CPP, reference compound]: the Ki in [12] (reference compound, [3H]CGS19755) was found to be 0.359 µM.

For `CC(Nc1ccc(Br)cc1)c1ccncc1` (centres unmarked) [Compound 4, 1-(4-Bromoanilino)-1-(4-pyridyl)-ethan], the minimal effective dose in data set [4] was under 100 mg/kg. Besides, the ED50 in [5] is over 200 mg/kg; in [7] it was over 250 mg/kg; in data set [19] it was 20.9 mg/kg; in data set [20], 62.7 mg/kg. For the same compound, the TD50 was over 200 mg/kg in [6] and over 500 mg/kg in data set [8]. Further, the “activity at the [3H]MK-801-binding receptor sites (in words)” value in [11] was “no activity”. The “activity at the [3H]TCP-binding receptor sites / PCP receptors (in words)” value in [13] is recorded as “no activity”. Moreover, the “inhibition … (in words)” value in data set [15] is “inhibit selectively”. Also, the responders at 50 mg/kg in [19] lay within 75 to 100%. The “P.I. MES (TD50/ED50)” value is on record as over 23.93 in [19] and over 3.19 in data set [20].

For `Clc1ccc(NCc2ccncc2)cc1` [Compound 11, 1-(4-Chloroanilino)-1-(4-pyridyl)-methan], in [4], the minimal effective dose was under 100 mg/kg. The ED50 is 107 mg/kg in [5], over 250 mg/kg in [7], 39.1 mg/kg in data set [19] and 68.4 mg/kg in [20]. Further, the TD50 is under 225 mg/kg in data set [6] (mice, i.p., read-out: TD50 (rotorod)) and over 500 mg/kg in data set [8]. In [11], the “activity at the [3H]MK-801-binding receptor sites (in words)” value is given as “no activity”. Moreover, the “activity at the [3H]TCP-binding receptor sites / PCP receptors (in words)” value in [13] is reported as “no activity”. The “inhibition … (in words)” value in data set [15] is listed as “inhibit selectively”. Further, the responders at 50 mg/kg in data set [19] was in the range of 50 to 100%. Besides, the “P.I. MES (TD50/ED50)” value is given as over 12.8 in data set [19] and under 3.3 in data set [20].

In the case of `C=C(C)[C@H]1CN[C@H](C(=O)O)[C@H]1CC(=O)O` [Kainic Acid, reference compound], the inhibitory constant (Ki) in data set [10] (reference compound, [3H]KA) was 0.0249 µM.

The compound `NCc1cc(=O)[nH]o1` [Muscimol, reference compound] yielded a Ki in [16] (reference compound, GABAA) of 0.0028 µM.

In general, Ki refers to the equilibrium dissociation constant of an inhibitor or competing ligand from its target. Read a high Ki as a looser hold on the target. Usually ED50 stands for the dose at which the effect has come halfway, by size or by number of responders. By inhibition is commonly meant the relative decrease from the control value, in per cent.

(Values after patent US5648369A, “Aminoalkylpyridine compounds which are useful as anitconvulsant drugs, excitatory amino acid inhibitors and NMDA sigma receptor antagonists” (priority 1991, dated 1997).)
